Test results taken from US8420114B2, “Alpha and beta adrenergic receptor agonists for treatment of pain and / or inflammation” (Warsaw Orthopedic, Inc., priority 2008, dated 2013).

Experiments:
[1] = system: rat Chronic Constriction Injury model (Bennett Model) of neuropathic pain; experiment: von Frey monofilament test of mechanical allodynia (mechanical threshold) in rat chronic constriction injury model; assay type: in vivo, Wistar rat
From the text: The inventors evaluated the efficacy of a various alpha-2-adrenergic receptor agonists and compared them against saline in the rat Chronic Constriction Injury model (i.e., Bennett Model) using Wistar rats. […] The doses given would mimic those achievable by a continuous release drug depot containing a biodegradable polymer (7 rats in each group). […]
(§1) Results from another rat chronic constriction injury model study silimar to that discussed in Example 5, except some drug compositions having predominantly alpha 1 agonist activity and some drug compositions having predominantly alpha 2 agonist activity were given as indicated in the table below. The doses given would mimic those achievable by a continuous release drug depot containing a biodegradable polymer (7 rats in each group). […]
(§2) The inventors evaluated the efficacy of a various beta-2-adrenergic receptor agonists and compared them to clonidine (an alpha-2-agonist) and saline in the rat Chronic Constriction Injury model (i.e., Bennett Model) using Wistar rats.
Hargreaves tests were conducted on days 7 and 14; […], where some drug compositions having predominantly beta-2 agonist activity were compared to clonidine a drug composition that has predominantly alpha-2 agonist activity and saline. The doses given would mimic those achievable by a continuous release drug depot containing a biodegradable polymer (7 rats in each group). […]

[2] = system: rat Chronic Constriction Injury model (Bennett Model) of neuropathic pain; experiment: Hargreaves test of thermal hyperalgesia (thermal paw withdrawal latency) in rat chronic constriction injury model; assay type: in vivo, Wistar rat
From the text: The inventors evaluated the efficacy of a various alpha-2-adrenergic receptor agonists and compared them against saline in the rat Chronic Constriction Injury model (i.e., Bennett Model) using Wistar rats. […] The doses given would mimic those achievable by a continuous release drug depot containing a biodegradable polymer (7 rats in each group).
Each group received the treatment indicated above for total of 15 days and subjected to the following two tests: (1) the Hargreaves test on days 7 and 14; and (2) the von Frey test on days 8 and 15.
as §1, §2
Hargreaves tests were conducted on days 7 and 14; and von Frey tests were performed on days 8 and 15, where some drug compositions having predominantly beta-2 agonist activity were compared to clonidine a drug composition that has predominantly alpha-2 agonist activity and saline. The doses given would mimic those achievable by a continuous release drug depot containing a biodegradable polymer (7 rats in each group).
Each group received the treatment indicated above for total of 15 days and the following two tests: (1) the Hargreaves test on days 7 and 14; and (2) the von Frey test on days 8 and 15.

[3] = Example 7, FIG. 40, 5 mg/kg subcutaneous every day for 15 days, day 14, vs saline
[4] = Example 5, FIG. 36, 100 micrograms/kg subcutaneous every day for 15 days, days 7 and 14

## CNC[C@H](O)c1cccc(O)c1 [phenylephrine]
[1]; Example 6, FIG. 38, 10 mg/kg subcutaneous daily, day 8, compared to saline
  pain behavioral response for mechanical allodynia: decreased mechanical allodynia
[2]; Example 6, FIG. 37, 2 mg/kg subcutaneous every day for 15 days, day 7
  pain behavioral response for thermal hyperalgesia: statistically significant result of decreasing pain responses
[2]; Example 6, FIG. 37, 10 mg/kg subcutaneous every day for 15 days, days 7 and 14
  pain behavioral response for thermal hyperalgesia: statistically significant result of decreasing pain responses

## N=C(N)N/N=C/c1c(Cl)cccc1Cl [guanabenz]
[1]; Example 6, FIG. 38, 1 mg/kg subcutaneous daily, day 8, compared to saline
  pain behavioral response for mechanical allodynia: decreased mechanical allodynia
[1]; Example 6, FIG. 38, 5 mg/kg subcutaneous daily, day 15, compared to saline
  pain behavioral response for mechanical allodynia: decreased mechanical allodynia
[2]; Example 6, FIG. 37, 1 mg/kg subcutaneous every day for 15 days, day 7
  pain behavioral response for thermal hyperalgesia: statistically significant result of decreasing pain responses

## Clc1cccc(Cl)c1N=C1NCCN1 [clonidine, 2,6-dichloro-N-2-imidazolidinyldenebenzenamine]
[1]; Example 5, FIG. 35, 0.02 mg/kg subcutaneous every day for 15 days, day 15, vs saline
  pain behavioral response for mechanical allodynia: statistically significant results of decreasing pain responses
[1]; clonidine subcutaneously 0.02 mg/kg/day, compared to unloaded polymer depots, FIG. 4
  pain behavioral response (measured as a percentage of baseline) for mechanical allodynia: reduced the behavioral response
[2]; Example 5, FIG. 36, 0.02 mg/kg subcutaneous every day for 15 days, days 7 and 14
  pain behavioral response for thermal hyperalgesia: statistically significant result of decreasing pain responses
[2]; Example 6, FIG. 37, 0.02 mg/kg subcutaneous every day for 15 days, days 7 and 14
  pain behavioral response for thermal hyperalgesia: statistically significant result of decreasing pain responses
[2]; Example 7, FIG. 39, 0.02 mg/kg subcutaneous every day for 15 days, day 14, vs saline
  pain behavioral response for thermal hyperalgesia: statistically significant result of decreasing pain responses

## Cc1cc(C(C)(C)C)c(O)c(C)c1CC1=NCCN1 [oxymetazoline]
[1]; Example 6, FIG. 38, 0.1 mg/kg subcutaneous every day for 15 days, day 8 and 15, compared to saline
  pain behavioral response for mechanical allodynia: decreasing pain responses
[1]; Example 6, FIG. 38, 0.3 mg/kg subcutaneous every day for 15 days, day 8 and 15, compared to saline
  pain behavioral response for mechanical allodynia: decreasing pain responses
[2]; Example 6, FIG. 37, 0.1 mg/kg subcutaneous every day for 15 days, day 7
  pain behavioral response for thermal hyperalgesia: statistically significant result of decreasing pain responses
[2]; Example 6, FIG. 37, 0.3 mg/kg subcutaneous every day for 15 days, days 7 and 14
  pain behavioral response for thermal hyperalgesia: statistically significant result of decreasing pain responses

## CC(C)(C)NCC(O)c1ccc(O)c(CO)c1 (centres unmarked) [salbutamol]
[1]; [3]
  pain behavioral response for mechanical allodynia: statistically significant result of decreasing pain responses
[1]; Example 7, FIG. 40, 10 mg/kg subcutaneous every day for 15 days, days 8 and 15, vs saline
  pain behavioral response for mechanical allodynia: statistically significant result of decreasing pain responses
[2]; Example 7, FIG. 39, 5 mg/kg subcutaneous every day for 15 days, days 7 and 14, vs saline
  pain behavioral response for thermal hyperalgesia: statistically significant result of decreasing pain responses
[2]; Example 7, FIG. 39, 10 mg/kg subcutaneous every day for 15 days, days 7 and 14, vs saline
  pain behavioral response for thermal hyperalgesia: statistically significant result of decreasing pain responses

## CC(NCCc1ccc(O)cc1)C(O)c1ccc(O)cc1 (centres unmarked) [ritodrine]
[1]; [3]
  pain behavioral response for mechanical allodynia: statistically significant result of decreasing pain responses
[2]; Example 7, FIG. 39, 2 mg/kg subcutaneous every day for 15 days, day 7, vs saline
  pain behavioral response for thermal hyperalgesia: statistically significant result of decreasing pain responses
[2]; Example 7, FIG. 39, 5 mg/kg subcutaneous every day for 15 days, day 14, vs saline
  pain behavioral response for thermal hyperalgesia: statistically significant result of decreasing pain responses

## N=C(N)NC(=O)Cc1c(Cl)cccc1Cl [guanfacine]
[1]; Example 5, FIG. 35, 5 mg/kg subcutaneous every day for 15 days, day 15, vs saline
  pain behavioral response for mechanical allodynia: statistically significant results of decreasing pain responses
[2]; Example 5, FIG. 36, 5 mg/kg subcutaneous every day for 15 days, days 7 and 14
  pain behavioral response for thermal hyperalgesia: statistically significant result of decreasing pain responses

## CC(C)(C)NCC(O)c1cc(O)cc(O)c1 (centres unmarked) [terbutaline]
[1]; Example 7, FIG. 40, 0.5 mg/kg subcutaneous every day for 15 days, day 14, vs saline
  pain behavioral response for mechanical allodynia: statistically significant result of decreasing pain responses
[2]; Example 7, FIG. 39, 0.1 mg/kg subcutaneous every day for 15 days, days 7 and 14, vs saline
  pain behavioral response for thermal hyperalgesia: statistically significant result of decreasing pain responses
[2]; Example 7, FIG. 39, 0.5 mg/kg subcutaneous every day for 15 days, days 7 and 14, vs saline
  pain behavioral response for thermal hyperalgesia: statistically significant result of decreasing pain responses

## Cc1cccc(C(C)c2cnc[nH]2)c1C (centres unmarked) [medetomidine]
[1]; Example 5, FIG. 35, 200 micrograms/kg subcutaneous every day for 15 days, day 15, vs saline
  pain behavioral response for mechanical allodynia: statistically significant results of decreasing pain responses
[2]; [4]
  pain behavioral response for thermal hyperalgesia: statistically significant result of decreasing pain responses
[2]; Example 5, FIG. 36, 200 micrograms/kg subcutaneous every day for 15 days, day 14
  pain behavioral response for thermal hyperalgesia: statistically significant result of decreasing pain responses

## Clc1ccc2nsnc2c1NC1=NCCN1 [tizanidine]
[1]; Example 5, FIG. 35, 100 micrograms/kg subcutaneous every day for 15 days, day 15, vs saline
  pain behavioral response for mechanical allodynia: statistically significant results of decreasing pain responses
[2]; [4]
  pain behavioral response for thermal hyperalgesia: statistically significant result of decreasing pain responses
